# Laboratory results as given in US7998935B2, “Quinaldine based semisquaraines and squaraine dyes, process for preparation thereof and use thereof” (Council of Scientific and Industrial Research, priority 2006, dated 2011).
# Assays:
# [1] = Absorption and fluorescence emission spectra (photophysical properties); assay type: physicochemical
# From the text: Semisquaraine of the general formula 1 in which a quinaldine moiety is linked to the squaric acid through methylene bridge have absorption around 480 nm with high molar extinction coefficient (4.0×10^4 M^−1 cm^−1) which depends on the substitution on the quanaldine unit. […] The absorption and fluorescence emission spectra of representative semisquaraine of the general formula 1 where X=OH, Y=H, Z=H, R^2=CH3 are shown in FIG. 1.
# Similar to the semisquaraines the absorption spectra of these dyes were also dependent on the substitution on the quinaldine moiety. […] The presence of electron withdrawing groups in the quinaldine ring shifts the absorption maxima towards the blue region. […] The absorption and fluorescence emission spectra of representative symmetrical squaraine dye of the general formula 2, where X=I, Y=H, R^2=CH3 are shown in FIG. 2.
# The absorption and fluorescence emission spectra of representative unsymmetrical squaraine dyes of the general formula 3, where X=C6H11O6, Y=H, Q=I, Z=H, R^2=CH3, are shown in FIG. 4.
# [2] = system: L1210 mouse lymphoma cells; assay: Photocytotoxicity of squaraine dyes with and without visible light (cell survival / proliferation); assay type: cell-based; details: for toxicity in the dark: absence of light; for photocytotoxicity (% of cell survival with increasing concentration of dye): under illumination (visible light, 1000 W halogen lamp), on ice
# Protocol: FIG. 5: Photocytotoxicity of the squaraine dyes of general formula 2, where X=I, Y=H, R^2=CH3, and general formula 3, where X=OH, Y=H, Q=I, Z=H, R^2=CH3 in L1210 mouse lymphoma cells. Data gives the number of cell (% of controls) counted after 48 h after the treatment for 22.5 min at 0° C. with various concentrations of the squaraine dyes under dark and under irradiation. Data points represent the mean of three independent experiments (±SD).
# FIG. 6: Photocytotoxicity of the sugar linked and cholesterol-squaraine dyes of general formula 3, where X=C6H11O6, Y=H, Q=I, Z=H, R^2=CH3 and where X=C27H43O3, Y=H, Q=I, Z=H, R^2=CH3 L1210 mouse lymphoma cells. Data gives the number of cell (% of controls) counted after 48 h after the treatment for 22.5 min at 0° C. with various concentrations of the squaraine derivatives under dark and under irradiation. Data points represent the mean of three independent experiments (±SD).
# In order to analyze the cytotoxicity of the squaraine dyes of the general formula 2 wherein X=I, Y=H, R^2=CH3 and 3 wherein X=OH, Y=H, Q=I, Z=H, R^2=CH3, with and without visible light, the cloning efficiencies of L1210 mouse lymphoma cells exposed to various concentrations of the dyes were determined. The light exposure was carried out from a 1000 W halogen lamp at a distance of 33 cm in Ca^2+ and Mg^2+ free PBS (140 mM NaCl, 3 mM KCl, 8 mM […], pH 7.4) on ice (10^6 cells/mL). Illumination for 10 min corresponds to 225 kJ/m^2 between 400 and 800 nm. The cells were pelleted by centrifugation and resuspended in PBSG three times. The cells were resuspended at 3×10^4 cells/mL in fresh medium at 37° C. and the numbers of cells were counted repeatedly for 60 h. From the exponential part of the growth curves (between 24 and 60 h) the number of proliferating cells at the time of resuspension was calculated by extrapolation. Cell survival was defined as the ratio between proliferating and resuspended cells. Results obtained with representative quinaldine based squaraine dyes of the general formula 2 wherein X=I, Y=H, R^2=CH3 and 3 wherein X=OH, Y=H, Q=I, Z=H, are shown in FIG. 5.
# The cytotoxicity induced by squaraine dyes of the general formula 3 wherein X=C6H11O6, Y=H, Q=I, Z=H, R^2=CH3 and X=C27H43O3, Y=H, Q=I, Z=H, R^2=CH3 in mouse lymphoma cells L1210 with and without visible light, was carried out as explained in EXAMPLE 8. Results obtained with representative quinaldine based squaraine dyes of the general formula 3 wherein X=C6H11O6, Y=H, Q=I, Z=H, R^2=CH3 and X=C27H43O3, Y=H, Q=I, Z=H, R^2=CH3 are shown in FIG. 6.
# mammalian AS52 cells = assay: Cytotoxicity in the presence and absence of light; assay type: cell-based
# From the text: In the present invention, we have investigated the cytotoxicity of these dyes in mammalian AS52 cells both in the presence and absence of light.
absorption maxima ([1]; in methanol) [nm],Compound,toxicity in the dark [2],photocytotoxicity (% of cell survival with increasing concentration of dye) [2],further results
478,CCCCOc1c(C=C2C=Cc3cc(OCC)ccc3N2C)c(=O)c1=O,–,–,–
477,CCCCOc1c(C=C2C=Cc3cc(O)ccc3N2C)c(=O)c1=O,–,–,–
–,CN1/C(=C/C2=C([O-])C(=C\c3ccc4cc(I)ccc4[n+]3C)/C2=O)C=Cc2cc(I)ccc21,less toxic in the dark,dose dependent photocytotoxicity,absorption maxima ([1]; in DMSO): around 750 nm; emission maxima ([1]; in dimethyl sulfoxide (DMSO)): around 772 nm
–,CN1/C(=C/C2=C([O-])C(=C\c3ccc4cc(O[C@@H]5O[C@H](CO)[C@@H](O)[C@H](O)[C@H]5O)ccc4[n+]3C)/C2=O)C=Cc2cc(I)ccc21,very less toxicity in the absence of light,dose dependent photocytotoxicity,cytotoxicity compared with diiodo squaraine dye of general formula 2 (X=I) (mammalian AS52 cells): more cytotoxic; cytotoxicity compared with hydroxyl-substituted squaraine dye of general formula 3 (X=OH) (mammalian AS52 cells): significantly high
–,CN1/C(=C/C2=C([O-])C(=C\c3ccc4cc(O)ccc4[n+]3C)/C2=O)C=Cc2cc(I)ccc21,less toxic in the dark,dose dependent photocytotoxicity,–
